Laboratory results from publication PMC12445440 (Journal of Medical Virology, 2025).

Experiments:
ZIKV^Br [1] = experiment: Virus yield reduction assay, ZIKV^Br on Huh-7 cells; type: cell-based, Zika virus
BVDV = conditions: previously published data; Na = no detected antiviral activity; ref [18]-[22] of main text, [3] of supplement for PS1086, PS1100, PS1101; cited from earlier work
Vero76 = system: Vero76; set-up: method as in earlier work; conditions: previously published data; ref [18]-[22] of main text, [3] of supplement for PS1086, PS1100, PS1101; cited from earlier work
[2] = Cytotoxicity by WST-8, uninfected Huh-7 cells; conditions: human
ZIKV^Br [3] = experiment: Virus yield assay, ZIKV^Br on VeroE6 cells; type: cell-based; conditions: Zika virus, Vero C1008, 95% CI in brackets
ZIKV^Br [4] = experiment: Virus yield assay, ZIKV^Br on Vero TMPRSS cells; type: cell-based; conditions: Zika virus, 95% CI in brackets
ZIKV^Br [5] = experiment: Virus yield assay, ZIKV^Br on HMC3 cells; type: cell-based; conditions: Zika virus
ZIKV^Br [6] = experiment: Virus yield assay, ZIKV^Br on C6/36 cells; type: cell-based; conditions: Zika virus, 95% CI in brackets
ZIKV^Br [7] = experiment: Virus yield assay, ZIKV^Br on A549 cells; type: cell-based; conditions: Zika virus, 95% CI in brackets
[8] = Cytotoxicity by WST-8, VeroE6 cells; type: cell-based; conditions: simian, 95% CI in brackets
Protocol: (§1) Cytotoxic/cytostatic effects were evaluated in uninfected cells by WST‐8 (Orangu, Cell Guidance Systems): 1 × 10^4 cells/well in a 96‐well plate were incubated in the presence of threefold serial dilutions of compounds, from 0.30 to 218 μM, for 48 h. Medium was replaced with 50 μL of 10% WST‐8, in DMEM, 2% FBS. Following a 1‐h incubation at 37°C, optical density (OD) in wells was measured at 450 nm using Varioskan LUX (ThermoFisher Scientific). CC50 was calculated using the formula: %viability=100×(ODcompound/ODuntreated control) where ODcompound and ODuntreated are the OD of the cells treated with compound or DMSO, respectively.

[9] = Cytotoxicity by WST-8, HMC3 cells; type: cell-based; conditions: human, 95% CI in brackets
Protocol: as §1

[10] = Cytotoxicity by WST-8, C6/36 cells; type: cell-based; conditions: Aedes albopictus, 95% CI in brackets
Protocol: as §1

[11] = Cytotoxicity by WST-8, A549 cells; type: cell-based; conditions: human, 95% CI in brackets
Protocol: as §1

ZIKV^Ug = experiment: microbe, parasite or virus in culture; type: cell-based; conditions: Zika virus; ZIKV^Ug (Huh-7); 95% CI in brackets
USUV = experiment: microbe, parasite or virus in culture; type: cell-based; conditions: Usutu virus; USUV (Huh-7); 95% CI in brackets
WNV = experiment: microbe, parasite or virus in culture; type: cell-based; conditions: West Nile virus; WNV (Huh-7); 95% CI in brackets
SARS-CoV-2^Mi = experiment: microbe, parasite or virus in culture; type: cell-based; conditions: Severe acute respiratory syndrome coronavirus 2; SARS-CoV-2^Mi (Vero TMPRSS); 95% CI in brackets
CVB5 = experiment: Plaque reduction assay, CVB5 on A549 cells; type: cell-based, Coxsackievirus B5; conditions: Enterovirus B, 95% CI in brackets
CHIKV = experiment: Plaque reduction assay, CHIKV on Huh-7 cells; type: cell-based; conditions: Chikungunya virus, CHIKV (Huh-7), 95% CI in brackets
VSV = experiment: microbe, parasite or virus in culture; type: cell-based; conditions: Vesicular stomatitis virus, Huh-7
VV-IND-G = experiment: microbe, parasite or virus in culture; type: cell-based, Vaccinia virus recombinant for VSV-Indiana G protein; conditions: Orthopoxvirus vaccinia, Huh-7
HSV2 = experiment: Plaque reduction assay, HSV2 on A549 cells; type: cell-based, herpes simplex virus 2; conditions: Human alphaherpesvirus 2
IAV = experiment: microbe, parasite or virus in culture; type: cell-based; conditions: Influenza A virus, MDCK
TOSV = experiment: Plaque reduction assay, TOSV on VeroE6 cells; type: cell-based; conditions: Toscana virus, Vero C1008
ZIKV NS5 [12] = experiment: ZIKV protein synthesis by western blot (NS5), Huh-7 cells; type: cell-based, Zika virus; conditions: MOI 1, 1x, 5x, 10x EC50 (PS1097 0.6, 3, 6 μM; SOF 1.5, 7.5, 15 μM), 48 h
Protocol: (§2) Immunoblotting was performed as described.
(§3) Viral protein levels in cell lysates were analyzed by immunoblotting (Figure 3A,B), while virion release was assessed by quantifying ZIKV RNA in supernatants (Figure 3C).
(§4) Impact of treatment on ZIKV protein synthesis was evaluated on cell extracts analyzed by western blot using anti‐ ZIKV NS5, or anti‐GAPDH as a housekeeping control.

ZIKV NS5 [13] = experiment: ZIKV protein synthesis by western blot (NS5), Vero E6 cells; type: cell-based, Zika virus; conditions: MOI 1, 1x, 5x, 10x EC50, 48 h
Protocol: as §2, §3, §4

ZIKV^Br [14] = experiment: Time-of-addition (TOA) experiments, ZIKV^Br in Huh-7 cells; type: cell-based, Zika virus; conditions: harvest 48 h p.i.; for Time of addition giving the strongest inhibition: Huh-7, ZIKV^Br MOI 1, 10x EC50 (PS1097 6 μM, SOF 15 μM)
Protocol: PS1097 was added at 6 μM at 0, 2, 6, 12, 24, and 36 h p.i. SOF was used as a reference compound at 15 μM. At 48 h p.i., viral proteins were determined by western blot or by qRT‐PCR in cell lysates.
To elucidate the mechanism of PS1097 antiviral action, TOA experiments were conducted (Figure 4A). ZIKV^Br replication kinetics was assessed by quantifying viral genomic RNA and protein inside Huh‐7 cells at the times p.i. shown in Figure 4A. Viral RNA was detectable as of ~12 h p.i. (Figure 4D), whereas viral protein was visible after 24 h p.i. (Figure 4B,C). In parallel, cells were exposed to viral inoculum for 2 h. […] Then, they were harvested at 48 h p.i. Viral RNA in cells was measured by qRT‐PCR and inhibition relative to DMSO‐treated cells was calculated, as described by (Figure 4G).
(§5) Figure 4 (A) Experimental design of the Time Of Addition (TOA) assay for PS1097 and SOF. (B) ZIKV replication kinetics was determined on Huh‐7 cells infected at MOI 1for 2 h by western blot cell lysates prepared at the times shown. ZIKV NS5 and GAPDH were monitored with the antibodies in Supporting Information: Table S1. (C) Quantitative analysis of the results in B). (D) qRT‐PCR quantification of ZIKV RNA was carried out in ZIKV‐infected cells lysed at the times indicated on the x axis. (E) western blot of lysates of Huh‐7 cells harvested at 48 h p.i. where treatment with PS1097 or SOF was started as by A). (F) Quantitative analysis of the results in E). (G) ZIKV RNA was quantified in lysates of cells harvested at 48 h p.i. where treatment with PS1097 (red line) or SOF (green line) was started at the times p.i. indicated on the x axis. (H) Combined antiviral activity of PS1097 with SOF against ZIKV. Huh‐7 cells were infected with ZIKV then treated with PS1097 or SOF, alone or in combination, at the indicated concentrations. After 48 h p.i., supernatants were harvested and titrated for ZIKV yield. Two‐dimensional representation of dose–response interaction matrix was determined in synergyfinder.org. Color gradient indicates viral yield inhibition score (red‐highest score). […]

ZIKV^Br [15] = experiment: Synergism between PS1097 and SOF, ZIKV^Br yield; type: cell-based, Zika virus
Protocol: as §5, with “score). (I) Three‐dimensional surface plot representing synergy score (Z axis) for each compound combination.” for “score).”

ZIKV^Br [16] = system: ZIKV^Br
in vitro = conditions: simian
RTN4 = experiment: Western blot of ER proteins in Huh-7 cells: RTN4; conditions: 6 μM PS1097, 48 h
FAM134B = experiment: Western blot of ER proteins in Huh-7 cells: FAM134B; conditions: 6 μM PS1097, 48 h
TMEM41B = experiment: Western blot of ER proteins in Huh-7 cells: TMEM41B; conditions: 6 μM PS1097, 48 h
Huh-7 cells = experiment: Cytotoxicity by WST-8, uninfected Huh-7 cells; conditions: read-out: CC50 Huh-7; Table S2, this paper data
[17] = Zika virus, Huh-7, 48 h, ZIKV^Br on Huh-7 cells, viral yield reduction, 48 h, 95% confidence interval in brackets
[18] = Zika virus, Huh-7, read-out: EC50 ZIKV, Table S2, this paper data, Huh-7 cells, Na = no detected antiviral activity

CC(C)c1nc2cc3cccnc3c(Cl)c2[nH]c1=O [PS462]
EC50 (ZIKV^Br [1]; [17]): > 100 µM | EC50 (ZIKV^Br [1]; [18]): 100 µM | EC50 (BVDV): 5 µM | CC50 (Vero76): > 100 µM | CC50 at 48 h [2]: 294 µM

Cn1c(=O)c(-c2cccs2)nc2c(Cl)c3ncccc3cc21 [PS1240]
EC50 (ZIKV^Br [1]; [17]): 2.06 µM | EC50 (BVDV): 2 µM | CC50 (Vero76): > 100 µM | CC50 at 48 h [2]: 293 µM

O=c1[nH]c2cc3cccnc3c(Cl)c2nc1-c1cccs1 [PS1097, 5‐chloro‐3‐(thiophen‐2‐yl) pyrido[2,3‐g] quinoxalin‐2(1H)‐one]
EC50 (ZIKV^Br [1]; ZIKV^Br on Huh-7 cells, viral yield reduction, 48 h, 95% confidence interval in brackets): 0.69 µM | EC50 (ZIKV^Br [1]; [17]): 0.6 µM | EC50 (ZIKV^Br [1]; Zika virus, Huh-7, summary value of the discussion for Flaviviruses, read-out: EC50 against Flaviviruses): ~0.7 µM | EC50 (ZIKV^Br [3]): 1.34 µM | EC50 (ZIKV^Br [4]): 2.66 µM | EC50 (ZIKV^Br [5]): > 100 µM | EC50 (ZIKV^Br [6]): 5.51 µM | EC50 (ZIKV^Br [7]): 44.6 µM | CC50 at 48 h ([8]; VeroE6 cells, VeroE6 cells (TOSV row of Table 2)): 575 µM | CC50 at 48 h ([8]; VeroE6 cells (ZIKV^Br row of Table 2)): 126 µM | CC50 at 48 h [9]: 294 µM | CC50 at 48 h [10]: 150 µM | CC50 at 48 h ([11]; A549 cells (CVB5 and HSV2 rows of Table 2)): 218 µM | CC50 at 48 h ([11]; A549 cells (ZIKV^Br row of Table 2)): 130 µM | EC50 (ZIKV^Ug): 1.29 µM | EC50 (USUV): 0.86 µM | EC50 (WNV): 1.15 µM | EC50 (SARS-CoV-2^Mi): 0.1 µM | EC50 (CVB5): 4.47 µM | EC50 (CHIKV): 4.4 µM | EC50 (VSV): > 50 µM | EC50 (VV-IND-G): 1.73 µM | EC50 (HSV2): > 50 µM | EC50 (IAV): > 50 µM | EC50 (TOSV): > 50 µM | ZIKV protein expression (NS5, western blot) (ZIKV NS5 [12]): downregulated viral protein expression | ZIKV protein content (NS5, western blot) (ZIKV NS5 [13]): consistently reduced protein levels | Time of addition up to which viral protein expression is suppressed (ZIKV^Br [14]; Huh-7, ZIKV^Br MOI 1, 10x EC50 (6 μM)): up to 12 h p.i. | Time of addition giving the strongest inhibition (ZIKV^Br [14]): 0–6 h p.i. | Interaction of PS1097 with SOF (synergy) (ZIKV^Br [15]; combined treatment PS1097 2.0–0.125 μM with SOF 5.0–0.39 μM, 48 h p.i., SynergyFinder): No synergistic effects | Interaction of PS1097 with SOF at the highest concentrations (ZIKV^Br [15]; combined treatment, highest concentrations (PS1097 up to 2 μM, SOF up to 5 μM)): slight antagonistic effect | Selection of resistant ZIKV variants (ZIKV^Br [16]; ZIKV^Br passaged weekly on Huh-7 from 0.6 μM PS1097, at least four attempts): no resistant strains | Passage at which no viral yield was found (ZIKV^Br [16]; ZIKV^Br passaged weekly on Huh-7 in the presence of PS1097): 9 passage | EC50 (BVDV): 5 µM | CC50 (Vero76): > 100 µM | CC50 (in vitro): 86.2 µM | CC50 (in vitro; CC50, Vero TMPRSS cells (SARS-CoV-2^Mi row of Table 2), 95% CI in brackets): 436 µM | CC50 at 48 h [2]: 229 µM | RTN4 protein content (western blot) (RTN4): virtually unchanged | FAM134B protein content (western blot) (FAM134B): virtually unchanged | TMEM41B protein content (western blot) (TMEM41B): virtually unchanged

CC(C)OC(=O)[C@H](C)N[P@](=O)(OC[C@H]1O[C@@H](n2ccc(=O)[nH]c2=O)[C@](C)(F)[C@@H]1O)Oc1ccccc1 [SOF, Sofosbuvir, reference compound]
EC50 (ZIKV^Br [1]; [17]): 1.5 µM | EC50 (ZIKV^Br [1]; [18]): 1.53 µM | ZIKV protein expression (NS5, western blot) (ZIKV NS5 [12]): completely abolished protein synthesis | ZIKV protein content (NS5, western blot) (ZIKV NS5 [13]): no effect on viral protein content | Time of addition giving the strongest inhibition (ZIKV^Br [14]): 0–6 h p.i. | CC50 at 48 h [2]: 282 µM

NC(=O)c1ncn([C@@H]2O[C@H](CO)[C@@H](O)[C@H]2O)n1 [RBV, 1‐(b‐D‐ribofuranosyl)‐1H‐1,2,4‐triazole‐3‐carboxamide, reference compound]
EC50 (ZIKV^Br [1]; Zika virus, ZIKV^Br on Huh-7 cells, viral yield reduction, 48 h, 95% confidence interval in brackets, read-out: EC50): 8.8 µM | CC50 at 48 h [2]: 144 µM

O=c1nc(NO)ccn1[C@@H]1O[C@H](CO)[C@@H](O)[C@H]1O [EIDD-1931, β‐D‐N4‐hydroxycytidine, reference compound]
EC50 (ZIKV^Br [1]; Table S2, this paper data, Huh-7 cells, Na = no detected antiviral activity, read-out: EC50 ZIKV): 1.7 µM | CC50 (Huh-7 cells): 148 µM
